From EP4631938A1, “NITROGEN-CONTAINING HETEROCYCLE WITH SEROTONIN RECEPTOR-BINDING ACTIVITY AND CARBOCYCLIC DERIVATIVE” (Shionogi & Co., Ltd, priority 2022, dated 2024)

Tests used:
[1] = molecular target: T1, human recombinant 5-HT2A receptor (Homo sapiens, UniProt P28223); assay: Test Example 1-2: 5-HT2A receptor binding inhibition test ([3H]-Ketanserin; non-specific ligand Ketanserin); details: [3H]-Ketanserin; non-specific binding with 500 µmol/L Ketanserin; room temperature (25°C), 1.5 hours; read-out: h 5-HT2A Ki
T1 construct: expressed in transfected cells; host or cells: Jump-In HEK cells (membrane preparation)
T1 sequence (P28223 whole entry): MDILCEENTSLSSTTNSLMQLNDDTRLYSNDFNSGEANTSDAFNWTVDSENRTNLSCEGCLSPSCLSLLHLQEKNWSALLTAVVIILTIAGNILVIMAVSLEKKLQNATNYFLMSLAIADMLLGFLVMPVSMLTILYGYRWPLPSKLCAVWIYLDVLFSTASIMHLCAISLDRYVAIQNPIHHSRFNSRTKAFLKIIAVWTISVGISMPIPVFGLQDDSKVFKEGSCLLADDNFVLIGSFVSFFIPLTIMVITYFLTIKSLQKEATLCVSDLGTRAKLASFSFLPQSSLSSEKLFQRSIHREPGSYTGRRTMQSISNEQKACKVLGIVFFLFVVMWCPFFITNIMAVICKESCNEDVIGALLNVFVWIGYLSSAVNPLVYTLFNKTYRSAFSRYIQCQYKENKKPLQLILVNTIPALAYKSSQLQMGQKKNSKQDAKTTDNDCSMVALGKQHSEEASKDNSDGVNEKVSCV
Procedure, shortened: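 Membranes expressing the receptor were incubated with [3H]-ketanserin and compound for 1.5 h at 25 °C, then filtered onto plates presoaked in 50 mmol/L Tris-HCl pH 7.4 and scintillation-counted. Non-specific binding was defined with 500 µmol/L unlabeled ketanserin. Ki was taken from dose-response curves, with Kd set for each membrane lot by Scatchard analysis.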

[2] = molecular target: T2, human recombinant 5-HT2C receptor (Homo sapiens, UniProt P28335); assay: Test Example 2: 5-HT2C receptor binding inhibition test ([3H]-Mesulergine; non-specific ligand Serotonin HCl); details: human serotonin 5-HT2C receptor binding activity
T2 construct: expressed in transfected cells; host or cells: Jump-In HEK cells (membrane preparation)
T2 sequence (P28335 33-458): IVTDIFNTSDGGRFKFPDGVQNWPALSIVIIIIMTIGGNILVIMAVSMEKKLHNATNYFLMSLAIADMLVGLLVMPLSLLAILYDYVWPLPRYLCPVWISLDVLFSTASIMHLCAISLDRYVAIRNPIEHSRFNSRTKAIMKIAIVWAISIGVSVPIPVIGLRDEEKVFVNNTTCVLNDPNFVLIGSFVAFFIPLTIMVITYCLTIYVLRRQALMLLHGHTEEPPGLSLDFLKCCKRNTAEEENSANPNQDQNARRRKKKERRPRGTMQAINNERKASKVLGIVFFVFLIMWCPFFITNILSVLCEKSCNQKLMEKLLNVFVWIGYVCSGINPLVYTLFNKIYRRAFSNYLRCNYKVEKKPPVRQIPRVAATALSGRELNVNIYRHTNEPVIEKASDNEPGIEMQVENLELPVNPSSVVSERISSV
Procedure, shortened: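 Filtration binding to membranes bearing human 5-HT2C with [3H]-mesulergine, 2 h at 37°C; non-specific binding defined with 500 µmol/L serotonin HCl, total binding with vehicle. Inhibition rate computed from cpm; Ki derived from dose-response curve, with ligand Kd from Scatchard analysis of saturation binding.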

| Ki [1] | Ki [2] | SMILES |
| --- | --- | --- |
| 0.525 nM | 0.167 nM | COCc1nc(C)c(-c2cc(Nc3ncc(-c4ccc(Cl)c(F)c4)cc3Cl)ncc2OCCO)c(C)n1 [Compound I-234] |
| 0.603 nM | 5.78 nM | O=C1NCc2c1cccc2-c1cc(Nc2ncc(C(F)(F)F)cc2F)ncc1OCCO [Compound I-358] |
| 1.88 nM | 2.24 nM | COCc1nc(C)c(-c2cc(Nc3ncc(OC(C)(F)F)cc3Cl)ncc2OCCO)c(C)n1 [Compound I-266] |
| 0.925 nM | 0.984 nM | COCc1nc(C)c(-c2cc(Nc3ncc(-c4ccc(Cl)cn4)cc3Cl)ncc2OCCO)c(C)n1 [Compound I-235] |
| 3.49 nM | 9.69 nM | COCc1nc(C)c(-c2nc(Nc3ccc(C(F)(F)F)cn3)c(F)cc2OCCO)c(C)n1 [Compound I-334] |
| 0.52 nM | 0.36 nM | COCc1nc(C)c(-c2cc(Nc3ncc(-c4ccc(F)c(Cl)c4)cc3Cl)ncc2OCCO)c(C)n1 [Compound I-255] |
| 0.958 nM | 0.589 nM | Cc1nc(C)c(-c2nc(Nc3ccc(OC(F)F)cc3)c(F)cc2OCCO)c(C)n1 [Compound I-268] |
| 0.223 nM | 6.19 nM | Cc1cnn(C)c1-c1nc(Nc2ccc(Cl)cc2F)c(F)cc1OCCO [Compound I-282] |
| 1.27 nM | 1.57 nM | Cc1nc(COCC(F)F)nc(C)c1-c1cc(Nc2ncc(C(F)(F)F)cc2Cl)ncc1OCCO [Compound I-375] |
| 0.924 nM | 25.2 nM | C[C@H](CO)Oc1cnc(Nc2ncc(C(F)(F)F)cc2F)cc1-c1cccc2c1CNC2=O [Compound I-362] |
| 0.385 nM | 2.4 nM | Cc1cnn(C)c1-c1cc(Nc2ncc(OC(F)(F)F)cc2F)ncc1OCCO [Compound I-292] |
| 0.223 nM | 0.765 nM | Cn1ncc(Br)c1-c1nc(Nc2ccc(C(F)(F)F)cc2F)ncc1OCCO [Compound I-338] |
| 0.362 nM | 5.79 nM | Cn1ncc(Br)c1-c1cc(Nc2cnc(C(F)(F)F)cn2)c(F)cc1OCCO [Compound I-404] |
| 0.395 nM | 0.316 nM | COCc1nc(C)c(-c2cc(Nc3ncc(-c4cccc(F)c4)cc3Cl)ncc2OCCO)c(C)n1 [Compound I-257] |
| 0.169 nM | 0.644 nM | Cn1ncc(Cl)c1-c1cc(Nc2ncc(OC(F)F)cc2F)ncc1OCCO [Compound I-304] |
| 0.576 nM | 5.26 nM | Cn1ncc(Br)c1-c1cc(Nc2ncc(Cl)cn2)c(Cl)cc1OCCO [Compound I-398] |
| 0.67 nM | 5.57 nM | Cc1nc(C)c(-c2cc(Nc3ncc(Cl)cc3F)c(F)cc2OCCO)c(C)n1 [Compound I-166] |
| 0.28 nM | 2.22 nM | Cn1ncc(Cl)c1-c1cc(Nc2ccc(OC(C)(F)F)cn2)ncc1OCCO [Compound I-229] |
| 0.256 nM | 1.88 nM | Cn1ncc(Br)c1-c1nc(Nc2ccc(Cl)cc2Cl)ncc1OCCO [Compound I-342] |
| 0.194 nM | 0.608 nM | Cc1nc(C)c(-c2cc(Nc3ccc(-c4ccc(Cl)cc4)cn3)ncc2OCCO)c(C)n1 [Compound I-310] |

| Ki [1] | Ki [2] | SMILES |
| --- | --- | --- |
| 0.384 nM | 1.89 nM | Cn1ncc(Br)c1-c1cc(Nc2nc3ccc(F)cc3s2)c(Cl)cc1OCCO [Compound I-408] |
| 0.303 nM | 3.15 nM | Cc1nc(C)c(-c2cc(Nc3ccc(-c4ccccc4)cn3)ncc2OCCO)c(C)n1 [Compound I-298] |
| 0.933 nM | 0.301 nM | COCc1nc(C)c(-c2cc(Nc3ncc(-c4cc(F)cc(F)c4)cc3Cl)ncc2OCCO)c(C)n1 [Compound I-258] |
| 0.244 nM | 5.22 nM | Cn1ncc(Cl)c1-c1nc(Nc2ccc(OC(F)(F)F)cn2)c(F)cc1OCCO [Compound I-386] |
| 3.95 nM | 3.17 nM | COCc1nc(C)c(-c2cc(Nc3ncc(-c4ncc(F)cc4F)cc3Cl)ncc2OCCO)c(C)n1 [Compound I-252] |
| 3.43 nM | 3.76 nM | COCc1nc(C)c(-c2nc(Nc3ccc(C4CCC4)cn3)c(F)cc2OCCO)c(C)n1 [Compound I-193] |
| 0.217 nM | 2.52 nM | Cn1ncc(Br)c1-c1nc(Nc2ccc(Cl)cc2)ncc1OCCO [Compound I-339] |
| 1.08 nM | 3.91 nM | Cc1nc(C)c(-c2cc(Nc3ncc(C(F)(F)F)cc3Cl)ncc2OCCO)c(C)n1 [Compound I-390] |
| 0.851 nM | 7.58 nM | Cc1nc(C)c(-c2cc(Nc3ccc(OC(F)(F)F)cn3)ncc2OCCO)c(C)n1 [Compound I-295] |
| 0.804 nM | 3.67 nM | COc1nc(C)c(-c2cc(Nc3ncc(C(F)(F)F)cc3Cl)ncc2OCCO)c(C)n1 [Compound I-210] |
| 2.14 nM | 2.81 nM | COCc1nc(C)c(-c2cc(Nc3ncc(Br)cc3Cl)ncc2OCCO)c(C)n1 [Compound I-323] |
| 0.312 nM | 1.58 nM | Cn1ncc(Br)c1-c1nc(Nc2ccc(OC(F)(F)F)cn2)c(F)cc1OCCO [Compound I-280] |
| 0.225 nM | 3.64 nM | Cn1ncc(Br)c1-c1cc(Nc2cc(C(F)(F)F)ccn2)c(F)cc1OCCO [Compound I-407] |
| 2.3 nM | 1.35 nM | COCc1nc(C)c(-c2cc(Nc3ncc(-c4ncc(Cl)cn4)cc3Cl)ncc2OCCO)c(C)n1 [Compound I-239] |
| 0.414 nM | 1.3 nM | Cn1ncc(Cl)c1-c1cc(Nc2ncc(OCC(F)(F)F)cc2F)ncc1OCCO [Compound I-322] |
| 2.66 nM | 3.58 nM | Cc1nc(COC2CCOCC2)nc(C)c1-c1cc(Nc2ncc(C(F)(F)F)cc2Cl)ncc1OCCO [Compound I-381] |
| 0.16 nM | 5.81 nM | Cn1ncc(F)c1-c1cc(Nc2ncc(Cl)cc2F)c(F)cc1OCCO [Compound I-171] |
| 1.13 nM | 0.791 nM | Cc1cnn(Cc2nc(C)c(-c3cc(Nc4ncc(C(F)(F)F)cc4Cl)ncc3OCCO)c(C)n2)c1 [Compound I-379] |
| 0.575 nM | 1.04 nM | Cc1nc(C)c(-c2cc(Nc3ncc(-c4ccc(F)cc4)cc3C)ncc2OCCO)c(C)n1 [Compound I-318] |
| 0.577 nM | 0.318 nM | COCc1nc(C)c(-c2cc(Nc3ncc(-c4ccc(Cl)cc4F)cc3Cl)ncc2OCCO)c(C)n1 [Compound I-263] |

| Ki [1] | Ki [2] | SMILES |
| --- | --- | --- |
| 0.938 nM | 2.74 nM | Cc1nc(C)c(-c2cc(Nc3ncc(OC(F)(F)F)cc3Cl)ncc2OCCO)c(C)n1 [Compound I-270] |
| 3.34 nM | 12.2 nM | Cc1nc(C)c(-c2nc(Nc3ccc(-c4ccc(C(F)(F)F)nc4)cn3)c(F)cc2O[C@H](C)CO)c(C)n1 [Compound I-364] |
| 8.31 nM | 6.01 nM | COCc1nc(C)c(-c2cc(Nc3ncc(C4CC4(F)F)cc3Cl)ncc2OCCO)c(C)n1 (racemic) [Compound I-194] |
| 3.37 nM | 1.84 nM | COCc1nc(C)c(-c2nc(Nc3ccc(OC(F)(F)F)c(C)n3)c(F)cc2OCCO)c(C)n1 [Compound I-395] |
| 2.13 nM | 51.2 nM | O=C1NCc2c1cncc2-c1cc(Nc2ncc(C(F)(F)F)cc2F)ncc1OCCO [Compound I-368] |
| 0.203 nM | 3.56 nM | Cn1ncc(Br)c1-c1nc(Nc2ccc(Cl)cn2)c(F)cc1OCCO [Compound I-278] |
| 0.278 nM | 0.296 nM | Cc1cc(OC(F)(F)F)cnc1Nc1cc(-c2c(Br)cnn2C)c(OCCO)cn1 [Compound I-179] |
| 1.21 nM | 64.7 nM | Cc1ccc(CO)cc1-c1cc(Nc2ncc(C(F)(F)F)cc2F)ncc1OCCO [Compound I-373] |
| 1.97 nM | 64.9 nM | CCc1ncccc1-c1cc(Nc2ncc(C(F)(F)F)cc2F)ncc1OCCO [Compound I-367] |
| 2.07 nM | 4.37 nM | Cc1nc(C)c(-c2cc(Nc3ccc(C4(C(F)(F)F)CC4)cn3)ncc2OCCO)c(C)n1 [Compound I-297] |
| 0.252 nM | 4.82 nM | Cn1ncc(Cl)c1-c1cc(Nc2ncc(OC(F)(F)F)cn2)ncc1OCCO [Compound I-312] |
| 0.226 nM | 5.08 nM | Cn1ncc(Cl)c1-c1nc(Nc2ccc(C(F)(F)F)cn2)c(F)cc1OCCO [Compound I-385] |
| 0.533 nM | 11 nM | Cn1ncc(Br)c1-c1cc(Nc2ccc(C(F)(F)F)nn2)c(F)cc1OCCO [Compound I-402] |
| 0.258 nM | 0.337 nM | COCc1nc(C)c(-c2cc(Nc3ncc(-c4ccc(C(F)F)cc4)cc3Cl)ncc2OCCO)c(C)n1 [Compound I-242] |
| 1.22 nM | 3.36 nM | COCC(F)(F)COc1nc(C)c(-c2cc(Nc3ncc(C(F)(F)F)cc3Cl)ncc2OCCO)c(C)n1 [Compound I-218] |
| 0.475 nM | 4.75 nM | CC(C)Oc1ccc(Nc2cc(-c3c(Br)cnn3C)c(OCCO)cn2)nc1 [Compound I-182] |
| 5.85 nM | 1.41 nM | COCc1nc(C)c(-c2cc(Nc3ncc(-c4cnc(C(F)(F)F)nc4)cc3Cl)ncc2OCCO)c(C)n1 [Compound I-245] |
| 2.94 nM | 0.752 nM | COCCOCc1nc(C)c(-c2cc(Nc3ncc(C(F)(F)F)cc3Cl)ncc2OCCO)c(C)n1 [Compound I-205] |
